Experiment: Dissociation constant, pKa of the compound
Format: physicochemical
Conditions: not given

Q: With `CCOC(=O)c1ccc(O)cc1` [ETHYLPARABEN] as the molecule, how does the pKa read?
A: 8.3

Q: With `CC(C)N(CCC(C(N)=O)(c1ccccc1)c1ccccn1)C(C)C` (stereo not drawn) [DISOPYRAMIDE] as the molecule, how does the pKa read?
A: 10.1

Q: With `C=CCC1(C(C)CCC)C(=O)NC(=O)NC1=O` (stereo not drawn) [SECOBARBITAL] as the molecule, how does the pKa read?
A: 7.8

Q: For `O=C1Nc2ccc(Cl)cc2C(c2ccccc2Cl)=NC1O` (stereo not drawn) [LORAZEPAM], which pKa is on record?
A: 11.5

Q: With `COc1ccc2[nH]c([S+]([O-])Cc3ncc(C)c(OC)c3C)nc2c1` (stereo not drawn) [OMEPRAZOLE] as the molecule, how does the pKa read?
A: 8.9

Q: Which pKa does the source give for `CCCNC(=O)NS(=O)(=O)c1ccc(Cl)cc1` [CHLORPROPAMIDE] here?
A: 4.8

Q: Which pKa does the source give for `CC(C(=O)O)c1ccc(N2Cc3ccccc3C2=O)cc1` (single isomer, unassigned; (+)) [INDOPROFEN] here?
A: 4.6

Q: For `NCCN1C(=O)CN=C(c2ccccc2F)c2cc(Cl)ccc21` [DESALKYLFLURAZEPAM], which pKa is on record?
A: 11.6

Conditions: buffer, pH 10

Q: With `C[C@@H]1C[C@H]2[C@@H]3CCC4=CC(=O)C=C[C@]4(C)[C@@]3(F)[C@@H](O)C[C@]2(C)[C@@]1(O)C(=O)CO` [DEXAMETHASONE] as the molecule, how does the logS0 read?
A: -3.59

Q: Which logS0 does the source give for `CCCCn1c(C)nc2c1c(=O)n(C)c(=O)n2C` here?
A: -1.75

Q: For `CC(=O)OCC(=O)[C@@]1(O)CC[C@H]2[C@@H]3CCC4=CC(=O)CC[C@]4(C)[C@H]3C(=O)C[C@@]21C` [CORTISONE ACETATE], which logS0 is on record?
A: -4.21

Q: Which logS0 does the source give for `CCC1(C2=CC3CCC(C2)C3)C(=O)NC(=O)NC1=O` (stereo not drawn) [REPOSAL] here?
A: -2.7

Q: With `CC(=O)OCC(=O)[C@@]1(O)CC[C@H]2[C@@H]3CCC4=CC(=O)CC[C@]4(C)[C@H]3[C@@H](O)C[C@@]21C` [HYDROCORTISONE ACETATE] as the molecule, how does the logS0 read?
A: -4.34

Q: Which logS0 does the source give for `CCOC(=O)c1ccc(O)cc1` [ETHYLPARABEN] here?
A: -2.38

Q: With `Cc1ccnc2c1NC(C#N)c1cccnc1N2C1CC1` (stereo not drawn) as the molecule, how does the logS0 read?
A: -4.74

Q: For `CC(C)N(CCC(C(N)=O)(c1ccccc1)c1ccccn1)C(C)C` (stereo not drawn) [DISOPYRAMIDE], which logS0 is on record?
A: -2.38

Q: Which logS0 does the source give for `O=C1NC(=O)C(c2ccccc2)(c2ccccc2)N1` [PHENYTOIN] here?
A: -4.15

Q: With `Cc1ccccc1N1C(=O)c2cc(S(N)(=O)=O)c(Cl)cc2NC1C` (stereo not drawn) [METOLAZONE] as the molecule, how does the logS0 read?
A: -4.33

Q: Which logS0 does the source give for `O=C(O)c1ccccc1` [BENZOIC ACID] here?
A: -1.58

Q: With `C=CCC1(C(C)CCC)C(=O)NC(=O)NC1=O` (stereo not drawn) [SECOBARBITAL] as the molecule, how does the logS0 read?
A: -2.36

Q: With `Cc1nnc2n1-c1ccc(Cl)cc1C(c1ccccc1Cl)=NC2` [TRIAZOLAM] as the molecule, how does the logS0 read?
A: -4.04

Q: For `CC/C=C(\C)C1(CC)C(=O)NC(=O)NC1=O` [VINBARBITAL], which logS0 is on record?
A: -2.3

Q: For `O=C1Nc2ccc(Cl)cc2C(c2ccccc2Cl)=NC1O` (stereo not drawn) [LORAZEPAM], which logS0 is on record?
A: -3.74

Q: Which logS0 does the source give for `CCCCC1(CC=C(C)C)C(=O)NC(=O)NC1=O` here?
A: -3.55

Q: Which logS0 does the source give for `CCOC(=O)c1ccc(N)cc1` [BENZOCAINE] here?
A: -2.34

Q: For `Nc1ccc(/N=N/c2ccccc2)c(N)n1` [PHENAZOPYRIDINE], which logS0 is on record?
A: -4.53

Q: Which logS0 does the source give for `COc1cc(NC(C)CCCN)c2ncccc2c1` (stereo not drawn) [PRIMAQUINE] here?
A: -2.52

Q: For `CCCCCC1(CC)C(=O)NC(=O)NC1=O`, which logS0 is on record?
A: -2.34

Q: With `CCC1(C2=CCCCC2)C(=O)NC(=O)NC1=O` [CYCLOBARBITAL] as the molecule, how does the logS0 read?
A: -2.12

Q: With `Cc1ccc2c(c1)C(=O)Nc1cc(N)ccc1O2` as the molecule, how does the logS0 read?
A: -3.93

Q: For `C[C@]12C[C@H](O)[C@H]3[C@@H](CCC4=CC(=O)CC[C@@]43C)[C@@H]1CC[C@@H]2C(=O)CO` [CORTICOSTERONE], which logS0 is on record?
A: -3.28

Q: For `CCN1c2ncccc2C(=O)N(C)c2c(C)cc(OC)nc21`, which logS0 is on record?
A: -2.62

Q: Which logS0 does the source give for `COC1=CC(=O)C[C@@H](C)[C@]12Oc1c(Cl)c(OC)cc(OC)c1C2=O` [GRISEOFULVIN] here?
A: -4.83

Q: For `CCC[S+]([O-])CCCN(CC)CC(O)COc1ccc(C#N)cc1` (stereo not drawn) [ALMOKALANT], which logS0 is on record?
A: -1.17

Q: For `COC(=O)c1cc2nc([S+]([O-])Cc3nccc(OC)c3OC)[nH]c2cc1C` (stereo not drawn), which logS0 is on record?
A: -4.41

Q: For `CCCCC[C@H](O)/C=C/[C@H]1[C@H](O)CC(=O)[C@@H]1CCCCCCC(=O)O` [ALPROSTADIL], which logS0 is on record?
A: -3.67

Q: For `CC(C)NCC(O)COc1cccc2ccccc12` (stereo not drawn) [PROPRANOLOL], which logS0 is on record?
A: -3.92

Q: Which logS0 does the source give for `CCN(CC)CCOC(=O)c1ccc(N)cc1` [PROCAINE] here?
A: -1.78

Q: For `CCC1(C2=CCCCCC2)C(=O)NC(=O)NC1=O` [HEPTABARBITAL], which logS0 is on record?
A: -2.91

Q: Which logS0 does the source give for `CC(=O)OCC(=O)[C@@]1(O)CC[C@H]2[C@@H]3CCC4=CC(=O)C=C[C@]4(C)[C@H]3[C@@H](O)C[C@@]21C` [PREDNISOLONE ACETATE] here?
A: -4.37

Q: For `CCN1c2ccccc2N(C)C(=O)c2cccnc21`, which logS0 is on record?
A: -3.32

Q: Which logS0 does the source give for `C=CCc1ccccc1OCC(O)CNC(C)C` (stereo not drawn) [ALPRENOLOL] here?
A: -2.83

Q: For `COc1ccc2[nH]c([S+]([O-])Cc3ncc(C)c(OC)c3C)nc2c1` (stereo not drawn) [OMEPRAZOLE], which logS0 is on record?
A: -3.4

Q: For `CN1C(=O)c2cccnc2Oc2ccccc21`, which logS0 is on record?
A: -3.76

Q: For `O=C(O)c1ccccc1O` [SALICYLIC ACID], which logS0 is on record?
A: -1.8

Q: For `CCCNC(=O)NS(=O)(=O)c1ccc(Cl)cc1` [CHLORPROPAMIDE], which logS0 is on record?
A: -3.3

Q: With `C=CCOc1ccc(CC(=O)O)cc1Cl` [ALCLOFENAC] as the molecule, how does the logS0 read?
A: -3.13

Q: For `CCCCC[C@H](O)/C=C/[C@H]1[C@H](O)CC(=O)[C@@H]1C/C=C\CCCC(=O)O` [DINOPROSTONE], which logS0 is on record?
A: -2.47

Q: With `CCN1c2ncccc2C(=O)N(C)c2ccc(Cl)nc21` as the molecule, how does the logS0 read?
A: -4.11

Q: With `CC(C(=O)O)c1ccc(N2Cc3ccccc3C2=O)cc1` (single isomer, unassigned; (+)) [INDOPROFEN] as the molecule, how does the logS0 read?
A: -4.72

Q: With `C[C@H]1C[C@H]2[C@@H]3CCC4=CC(=O)C=C[C@]4(C)[C@@]3(F)[C@@H](O)C[C@]2(C)[C@@]1(O)C(=O)CO` [BETAMETHASONE] as the molecule, how does the logS0 read?
A: -3.77

Q: With `CC(=O)OCC(=O)[C@@]1(O)[C@H](OC(C)=O)C[C@H]2[C@@H]3CCC4=CC(=O)C=C[C@]4(C)[C@@]3(F)[C@@H](O)C[C@@]21C` [TRIAMCINOLONE DIACETATE] as the molecule, how does the logS0 read?
A: -4.31

Q: Which logS0 does the source give for `NCCN1C(=O)CN=C(c2ccccc2F)c2cc(Cl)ccc21` [DESALKYLFLURAZEPAM] here?
A: -3.72

Q: Which logS0 does the source give for `COC(=O)[C@H]1[C@@H](OC(=O)c2ccccc2)C[C@@H]2CC[C@H]1N2C` [COCAINE] here?
A: -2.25

Q: Which logS0 does the source give for `CN1C(=O)c2cccnc2N(C(C)(C)C)c2ncccc21` here?
A: -4.85

Q: With `CC(C)Nc1cccnc1N1CCN(C(=O)c2cc3cc(NS(C)(=O)=O)ccc3[nH]2)CC1` [DELAVIRDINE] as the molecule, how does the logS0 read?
A: -5.74

Q: For `CC(CCc1ccccc1)NCC(O)c1ccc(O)c(C(N)=O)c1` (stereo not drawn) [LABETALOL], which logS0 is on record?
A: -3.41

Q: Which logS0 does the source give for `C=C(Br)CC1(C(C)CC)C(=O)NC(=O)NC1=O` (stereo not drawn) [BUTALLYLONAL] here?
A: -2.65

Q: With `CN1C(C(=O)Nc2ccccn2)=C(O)c2ccccc2S1(=O)=O` [PIROXICAM] as the molecule, how does the logS0 read?
A: -4.03

Q: With `COc1cc2c(N)nc(N3CCN(C(=O)OCC(C)(C)O)CC3)nc2c(OC)c1OC` [TRIMAZOSIN] as the molecule, how does the logS0 read?
A: -3.64

Q: Which logS0 does the source give for `CCOC(=O)OCn1c([S+]([O-])Cc2nccc(OC)c2OC)nc2cc(C(=O)OC)c(C)cc21` (stereo not drawn) here?
A: -5.21

Q: Which logS0 does the source give for `CC(=O)N1CCN(c2ccc(OC[C@H]3CO[C@](Cn4ccnc4)(c4ccc(Cl)cc4Cl)O3)cc2)CC1` [KETOCONAZOLE] here?
A: -3.8

Q: With `C=CCC1(CCCC)C(=O)NC(=O)NC1=O` as the molecule, how does the logS0 read?
A: -2.11

— ChEMBL document CHEMBL1150239, “Molecular characteristics for solid-state limited solubility” (J Med Chem, 2008)
